{"source": "patent US10125184B2", "about": "“Apolipoprotein E polypeptides and their use” (priority 2011, dated 2018)", "key": {"Huh7.5.1 cells": {"system": "Huh7.5.1 cells", "experiment": "Cytotoxicity/cell viability assay (CellTiter-Glo)", "assay_type": "cell-based", "details": "48 hours; hEP up to 100 μg/ml (~14 μM)", "protocol": "(§1) FIGS. 1A-1C. A human apoE derived peptide (hEP) suppresses HCV infection. (A) Schematic illustration of apoE protein domains and the amino acid sequences of hEP and mEP peptides. The amino acid sequences shown are hEP-1 (SEQ ID NO: 6) and mEP (SEQ ID NO: 20). (B) Dose dependent inhibition of HCVcc infection by hEP. Huh7.5.1 cells were infected with JFH-1 HCVcc-Luc (MOI˜0.5) in the presence of hEP or mEP for 2 hours. After removal of virus and peptides, cells were further incubated for 48 hours prior to luciferase assay. Data are presented as % inhibition relative to control infections in which cells were treated with DMSO (0%). Results are expressed as mean±standard deviation (s.d.) (n=3). (C). Huh7.5.1 cells were treated with hEP or DMSO at indicated doses for 48 hours. The effect of hEP on cell viability was measured by a CellTiter Glo assay kit.\nHuh7.5.1 cells (10^5 per well) were treated with hEP or DMSO at various concentrations for 48 hours in 24-well plates. The numbers of viable cells in culture were determined using the CELLTITER-GLO® Cell Viability Luminescent Assay kit according to the manufacturer's instruction (Promega)."}, "HCVcc-luc [1]": {"system": "HCVcc-luc", "experiment": "Attachment versus post-attachment inhibition assay", "assay_type": "cell-based, Hepatitis C virus", "details": "heparin 200 μg/ml, anti-CD81 5 μg/ml, hEP 20 μg/ml, bafilomycin A1 10 nM", "protocol": "(§2) FIGS. 5A-5D. hEP inhibits HCV entry at the attachment step. (A) HCVcc-luc was first mixed with either scrambled peptide or hEP-2 (20 μg/ml) for one hour at room temperature. In Group 1, mixed virus was directly added to Huh7.5.1 cells, whereas in Group 2, virus was purified through ultracentrifuge at 28,000×g for 4 hours in order to remove peptide, and then used to infect Huh7.5.1 cells. **p<0.005. (B) The kinetics of hEP- and bafilomycin A1-mediated inhibition were determined by time-of-addition assays, as described in the examples section. Fitted lines represent sigmoidal time-dependent curves (mean of n=3; error bars, s.d.). (C) HCVcc-Luc was added to Huh7.5.1 cells at 4° C. and incubated for 1.5 hrs. Unbound virus was removed by 2 washes with cold media, fresh media was added, and the cells were shifted to 37° C. to allow synchronous infection to proceed. Heparin (200 μg/ml), anti-CD81 monoclonal antibody (5 μg/ml), hEP (20 μg/ml), or bafilomycin A1 (10 nM) were present in the media either continuously, during the 4° C. incubation only (attachment), or during the 37° C. incubation phase only (post-attachment). % Inhibition was calculated as 100-percent infection relative to control infections containing DMSO or an isotype antibody control containing 0.01% sodium azide (for anti-CD81 only) (mean of n=3; error bars, s.d.). (D) The effects of hEP (2.7 μM) or scrambled peptide on HCV binding were determined as described in the examples section. Results were calculated as relative RNA copies with numbers obtained from the scrambled peptide treated wells set to 100 (mean of n=3; error bars, s.d.). **p<0.005.\nTo investigate the mechanistic action of hEP, three sets of experiments were conducted. First, hEP-2 (SEQ ID NO: 9) or scrambled peptide-treated HCVcc were purified through ultracentrifugation to remove the peptide and then used to infect naïve Huh7.5.1 cells. […] Second, to determine the kinetics of inhibition, a time-of-addition experiment was conducted. HCV remained sensitive to bafilomycin A1, a fusion inhibitor that prevents endosome acidification, until 3 hours after the 37° C. temperature shift (FIG. 5B), which is consistent with previous reports (Koutsoudakis et al., J Virol 2006; 80:5308-5320). […] In order to determine whether hEP-2 (SEQ ID NO: 9) blocks infection at the initial attachment step or a downstream event in the HCV entry process, hEP-2 (SEQ ID NO: 9) was either added together with HCVcc to cells during the 4° C. attachment step only, and then removed prior to shifting the temperature to 37° C., or added only after the temperature shift. As a positive control, hEP-1 was present during the entire course of the experiment. […] Finally, the direct binding of virions to cell surface was measured using a real-time PCR based assay."}, "HCVcc-luc [2]": {"system": "HCVcc-luc", "experiment": "Time-of-addition assay", "assay_type": "cell-based, Hepatitis C virus", "details": "10 nM bafilomycin A1", "protocol": "as §2, with “bars, s.d.). […] Heparin (200” for “bars, s.d.). (C) HCVcc-Luc was added to Huh7.5.1 cells at 4° C. and incubated for 1.5 hrs. Unbound virus was removed by 2 washes with cold media, fresh media was added, and the cells were shifted to 37° C. to allow synchronous infection to proceed. Heparin (200”, “s.d.). **p<0.005. […]” for “s.d.). **p<0.005.”"}, "[3]": {"experiment": "DMPC binding assay (turbidity OD490nm)", "details": "reduction (percentage) of turbidity (OD490nm) of DMPC solution, plateau 10 minutes after addition of peptide", "protocol": "FIGS. 3A-3C. Both hEP and mEP mediate plasma cholesterol clearance through hepatic lipoprotein receptors. (A) DMPC binding assay was conducted as described in the examples section. The turbidity of DMPC vesicle solution was monitored by OD490 nm. The curves were representative of two independent experiments. (B) HEK293T cells were loaded with DiI-LDL (5 μg/ml) along with apoE peptide-DMPC particles which competed with DiI-LDL for LDLR binding and LDLR-mediated endocytosis (for 30 min) n=3 for each group. (C) Each peptide (100 μg in 100 μl PBS) was retro-orbitally injected into 6-month-old apoE−/− mice (two mice each group). PBS (100 μl) was injected into two other mice as control. Before (set as 0 min time point) and 5 min, 30 min, 1 h, 2 h, and 4 h after the peptide or PBS injection, 30 μl blood samples were drawn for plasma cholesterol measurement using total Cholesterol Reagent Kit (Raichem, San Diego, Calif.).\n1,2-dimyristoyl-sn-glycero-3-phosphatidylcholine (DMPC) (Avanti Polar Lipids Inc., Alabaster, Ala.) was dissolved in chloroform: methanol (3:1, v/v). It was dried thoroughly under a stream of N2. The dried lipid sample was dispersed in pre-warmed buffer (10 mM Tris-HCl, pH7.2; 150 mM NaCl; 0.5 mM EDTA) to final lipid concentration of 10 mg/ml, vortexed for 1 min, and sonicated 10 times at lowest power for 10 seconds at 24° C. The peptide solution, lipid solution and buffer were all maintained at 23.9° C. One milliliter buffer and 250 μg (25 μl lipid solution) were added in a quartz cuvette, and let equilibrate for 10 min, resulting in a turbid DMPC vesicle solution. Peptide solution (250 μg in 100 μl) was then added to turbid solution in the cuvette, the solution was mixed immediately, and the change of turbidity was monitored by OD at 490 nm as a function of time. If the peptide binds to DMPC vesicles, the large DMPC vesicles will be transformed into smaller DMPC-peptide particles, reducing the turbidity of the solution."}, "JFH-1 HCVcc-Luc": {"system": "JFH-1 HCVcc-Luc", "details": "Huh7.5.1 cells", "protocol": "as §1, with “A human apoE derived peptide (hEP) suppresses HCV infection.” left out, “(B) Dose dependent inhibition of HCVcc infection by hEP.” left out\nFIGS. 7A-7E. Mapping the anti-viral activity of hEP. In (A) and (B), HCVcc-luc was first mixed with indicated peptides (20 μg/ml, 2.7 μM) and then incubated with Huh7.5.1 cells for two hours at 37° C. to initiate infection. After additional 48 hours incubation, luciferase activity was measured. Results are presented as fold of inhibition relative to infections containing DMSO (n=5, mean±sd). (C) 20 μg of hEP-2 or hEP-2/ΔCys were resuspended in PBS and kept at room temperature for 30 minutes. Peptides were then mixed with 2×SDS-sample buffer without DTT and boiled for 5 minutes. Alternatively, samples were simply left unboiled or mixed with sample buffer containing DTT (2 mM). Peptide samples were then subjected to electrophoresis on a 16% tricine non-reducing gel (Invitrogen). […] (D) and (E) Mass spectrometric analysis of hEP-2 or hEP-2/ΔCys.\nDetailed procedures involving the production and use of HCVpp and HCVcc have been published elsewhere (Liu et al., J Virol 2009; 83:2011-2014; Yang et al., Hepatology 2008; 48:1396-1403; Yang et al., J Biol Chem 2008; 283:8643-8653). Production procedure of HCVcc expressing firefly luciferase that was inserted between NS5A and NS5B (JFH-1 strain) was described elsewhere (Liu et al., Virology 2010; 407:160-170). Unless otherwise indicated, viruses were typically added to cells for two hours before removal. Cells were incubated for additional 48 hours followed by luciferase assay. When purification was needed, HCVcc were subjected to ultracentrifugation (SW41, 28,000×g) for 4 hours through a 20% sucrose cushion. Deidentified human sera, collected from five patients containing high-titer HCV (HCVser), were obtained."}}, "note": "Ends that are not written are not given here.", "data": [{"molecule": "C[C@H](N)C(=O)N[C@@H]1[C@H]2C(=C(O)C[C@@H](O)[C@@H]2O)C(=O)O[C@]1(C)C(Cl)Cl", "note": "[Bactobolin, reference compound]", "values": [{"measurement": "Cytotoxicity (cell viability)", "setting": "Huh7.5.1 cells", "result": "induced significant cell death"}]}, {"molecule": "CO/C1=C\\C(C)=C\\[C@@H](C)[C@@H](O)[C@@H](C)C/C(C)=C/C=C/[C@H](OC)[C@@H]([C@@H](C)[C@@H](O)[C@H](C)[C@@]2(O)C[C@@H](O)[C@H](C)[C@@H](C(C)C)O2)OC1=O", "note": "[bafilomycin A1, reference compound]", "values": [{"measurement": "Inhibition when present after the temperature shift only (post-attachment)", "setting": "HCVcc-luc [1]", "result": "most effective"}, {"measurement": "Time after 37° C. temperature shift until which HCV remained sensitive", "setting": "HCVcc-luc [2]", "result": "≤ 3", "unit": "h"}]}, {"molecule": "CEEQAQQIRLQAEAFQARLKSWFEPLVEDM [hEP-3]", "values": [{"measurement": "DMPC binding", "setting": "[3]", "result": "+ (+, reduction 25-50%)"}, {"measurement": "solubility", "setting": "physchem", "result": "< 220", "unit": "µg/mL"}, {"measurement": "Inhibition of HCVcc infection/entry (in words)", "setting": "JFH-1 HCVcc-Luc", "result": "dramatically reduced ability to inhibit HCVcc entry"}]}, {"molecule": "heparin [reference compound]", "values": [{"measurement": "Inhibition when present during the 4° C. attachment step only", "setting": "HCVcc-luc [1]", "result": "predominant"}]}]}
